Measured values reported in patent publication US9617256B2 (priority 2007, dated 2017).
≈ marks a conversion by molar mass, not a printed value.

Tests used:
AECO001 (ATCC25922) = assay: MIC broth microdilution, AECO001; type: cell-based, E. coli; conditions: Escherichia coli, ATCC25922, read-out: MIC AECO001
Procedure, shortened: (§1)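 CLSI-guided microdilution: bacteria passaged overnight at 35° C. on Mueller-Hinton agar, tested in cation-adjusted broth at a final 3×10^5–7×10^5 CFU/mL across 2-fold drug dilutions, read after 18-24 h at 35° C.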

[1] = test system: AECO063 (ATCC25922 bearing an acrAB mutation); assay: microbe, parasite or virus in culture; type: cell-based, E. coli; conditions: Escherichia coli, ATCC25922, read-out: MIC AECO063
Procedure, shortened: as §1

APAE001 (ATCC27853) = assay: MIC broth microdilution, APAE001; type: cell-based, P. aeruginosa; conditions: Pseudomonas aeruginosa, ATCC27853, read-out: MIC APAE001, APAE001 is ATCC27853
Procedure, shortened: as §1

[2] = test system: APAE006 (strain of P. aeruginosa in which all efflux pumps are inactivated); assay: microbe, parasite or virus in culture; type: cell-based; conditions: Pseudomonas aeruginosa, read-out: MIC APAE006, P. aeruginosa, all efflux pumps inactivated
Procedure, shortened: (§2)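 For the efflux-deficient P. aeruginosa APAE006, one set of MICs includes polymyxin B nonapeptide at 8 micrograms per milliliter.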

[3] = test system: APAE006 in the presence of 8 micrograms per milliliter of polymyxin B nonapeptide; type: cell-based, P. aeruginosa; conditions: in the presence of 8 micrograms per milliliter of polymyxin B nonapeptide
Procedure, shortened: as §2

[4] = test system: AABA1060 (clinical isolate of Acinetobacter baumannii); assay: MIC broth microdilution, AABA1060; type: cell-based; conditions: Acinetobacter baumannii, read-out: MIC AABA1060
Procedure, shortened: as §1

[5] = test system: ASAU001 (laboratory strain of S. aureus, ATCC29213); assay: MIC broth microdilution, ASAU001; type: cell-based; conditions: Staphylococcus aureus, ATCC29213, read-out: MIC ASAU001
Procedure, shortened: as §1

AECO001 HSA AGP = assay: MIC broth microdilution, AECO001 HSA AGP; type: cell-based, E. coli; conditions: Escherichia coli
Procedure, shortened: as §1

Row | SMILES | MIC (AECO001 (ATCC25922)) [µg/mL] | MIC [1] [µg/mL] | MIC (APAE001 (ATCC27853)) [µg/mL] | MIC [2] [µg/mL] | MIC APAE006 + PMBN [3] | MIC [4] [µg/mL] | MIC [5] [µg/mL] | MIC (AECO001 HSA AGP) [µg/mL]
1 | O=CN(O)CCNC(=O)c1ccc(C#Cc2ccc(CN3CCOCC3)cc2)cc1 [Example 127-1, N-[2-(Formyl-hydroxyamino)-ethyl]-4-(4-morpholin-4-ylmethyl-phenylethynyl)-benzamide] | 16 to 64 (≈ 39.3 to 157 µM) | 2 to 16 (≈ 4.91 to 39.3 µM) | > 64 | 16 to 64 (≈ 39.3 to 157 µM) | C (MIC's of greater than 16.0 μg/mL to 64.0 μg/mL = C) | > 64 | > 64 | 16 to 64 (≈ 39.3 to 157 µM)
2 | C[C@@H](N)[C@H](NC(=O)c1ccc(C#CC#Cc2ccc(F)cc2)cc1)C(=O)NO [Example 82-12] | < 2 | < 2 | 2 to 16 (≈ 5.27 to 42.2 µM) | < 2 | A (MIC's of 2.0 μg/mL or less = A) | 2 to 16 (≈ 5.27 to 42.2 µM) | 16 to 64 (≈ 42.2 to 169 µM) | 2 to 16 (≈ 5.27 to 42.2 µM)
3 | COC1CCN(Cc2ccc(C#Cc3ccc(C(=O)N[C@H](C(=O)NO)[C@@H](C)N)cc3)cc2)CC1 [Example 115-8] | < 2 | < 2 | < 2 | < 2 | A (MIC's of 2.0 μg/mL or less = A) | 2 to 16 (≈ 4.31 to 34.4 µM) | > 64 | 2 to 16 (≈ 4.31 to 34.4 µM)
4 | O=C(N[C@H](C(=O)NO)c1ccccc1)c1ccc(C#Cc2ccc(CN3CCOCC3)cc2)cc1 [Example 66-5, N—((S)-hydroxycarbamoyl-phenyl-methyl)-4-(4-morpholin-4-ylmethyl-phenylethynyl)-benzamide] | < 2 | < 2 | 2 to 16 (≈ 4.26 to 34.1 µM) | < 2 | A (MIC's of 2.0 μg/mL or less = A) | 2 to 16 (≈ 4.26 to 34.1 µM) | > 64 | 2 to 16 (≈ 4.26 to 34.1 µM)
5 | O=C(N[C@H](C(=O)NO)C1CCS(=O)(=O)CC1)c1ccc(C#Cc2ccc(CN3CCOCC3)cc2)cc1 [Example 67-9] | 2 to 16 (≈ 3.8 to 30.4 µM) | < 2 | 16 to 64 (≈ 30.4 to 122 µM) | < 2 | A (MIC's of 2.0 μg/mL or less = A) | > 64 | > 64 | 16 to 64 (≈ 30.4 to 122 µM)
6 | O=C(N[C@H](C(=O)NO)C1CCOCC1)c1ccc(/C=C/C#Cc2ccc(CN3CCOCC3)cc2)cc1 [Example 110-4] | < 2 | < 2 | 2 to 16 (≈ 3.97 to 31.8 µM) | < 2 | A (MIC's of 2.0 μg/mL or less = A) | 16 to 64 (≈ 31.8 to 127 µM) | 16 to 64 (≈ 31.8 to 127 µM) | 2 to 16 (≈ 3.97 to 31.8 µM)
7 | C[C@@H](O)[C@H](NC(=O)c1ccc(/C=C/C#Cc2ccc(CNC3CC3)cc2)cc1)C(=O)NO [Example 113-3] | < 2 | < 2 | 2 to 16 (≈ 4.61 to 36.9 µM) | < 2 | A (MIC's of 2.0 μg/mL or less = A) | 2 to 16 (≈ 4.61 to 36.9 µM) | > 64 | 2 to 16 (≈ 4.61 to 36.9 µM)
8 | C[C@@H](N)[C@H](NC(=O)c1ccc(C#Cc2ccc(CNCCC#N)cc2)cc1)C(=O)NO [Example 118-8] | < 2 | < 2 | < 2 | < 2 | A (MIC's of 2.0 μg/mL or less = A) | 2 to 16 (≈ 4.77 to 38.1 µM) | 16 to 64 (≈ 38.1 to 153 µM) | 2 to 16 (≈ 4.77 to 38.1 µM)
9 | C[C@H](N)[C@H](NC(=O)c1ccc(C#Cc2ccc(CN3CCOCC3)cc2)cc1)C(=O)NO [Example 133-2] | < 2 | < 2 | < 2 | < 2 | A (MIC's of 2.0 μg/mL or less = A) | 16 to 64 (≈ 36.7 to 147 µM) | > 64 | 16 to 64 (≈ 36.7 to 147 µM)
10 | C[C@@H](N)[C@H](NC(=O)c1ccc(C#CC#CC2CCCC2)cc1)C(=O)NO [Example 91-3] | < 2 | < 2 | < 2 | < 2 | A (MIC's of 2.0 μg/mL or less = A) | 2 to 16 (≈ 5.66 to 45.3 µM) | 2 to 16 (≈ 5.66 to 45.3 µM) | 2 to 16 (≈ 5.66 to 45.3 µM)
11 | C[C@@H](N)[C@H](NC(=O)c1ccc(C#Cc2ccc(CNC3CCCC3)cc2)cc1)C(=O)NO [Example 118-6] | 2 to 16 (≈ 4.6 to 36.8 µM) | < 2 | < 2 | < 2 | A (MIC's of 2.0 μg/mL or less = A) | 16 to 64 (≈ 36.8 to 147 µM) | 16 to 64 (≈ 36.8 to 147 µM) | 2 to 16 (≈ 4.6 to 36.8 µM)
